In patent US12011433B2 (UNIVERSITÁ DEGLI STUDI DI BARI “ALDO MORO”, priority 2016, dated 2024):
Like-named read-outs stand apart in the source and are kept apart here.

What was measured:
ovine COX-1 = ovine COX-1 (Ovis aries (Sheep), UniProt P05979); assay: colorimetric COX (ovine) inhibitor screening assay kit; type: biochemical; conditions: for IC50: ovine COX-1; for inhibition at 50 µM: read-out: COX-1 [% inhibition at 50 μM], ovine COX-1, 50 μM
Method: (§1) Enzyme inhibition was determined using a colorimetric COX (ovine) inhibitor screening assay kit (Cayman Chemicals, Ann Arbor, MI, USA) following the manufacturer's instructions. Stock solutions of test compounds were dissolved in a minimum volume of DMSO.

ovine COX-2 = ovine COX-2 (Ovis aries (Sheep), UniProt P79208); assay: as above; type: biochemical; conditions: for IC50: ovine COX-2; for inhibition at 50 µM: read-out: COX-2 [% inhibition at 50 μM], ovine COX-2, 50 μM
ovine COX-2, sequence (P79208 17-603): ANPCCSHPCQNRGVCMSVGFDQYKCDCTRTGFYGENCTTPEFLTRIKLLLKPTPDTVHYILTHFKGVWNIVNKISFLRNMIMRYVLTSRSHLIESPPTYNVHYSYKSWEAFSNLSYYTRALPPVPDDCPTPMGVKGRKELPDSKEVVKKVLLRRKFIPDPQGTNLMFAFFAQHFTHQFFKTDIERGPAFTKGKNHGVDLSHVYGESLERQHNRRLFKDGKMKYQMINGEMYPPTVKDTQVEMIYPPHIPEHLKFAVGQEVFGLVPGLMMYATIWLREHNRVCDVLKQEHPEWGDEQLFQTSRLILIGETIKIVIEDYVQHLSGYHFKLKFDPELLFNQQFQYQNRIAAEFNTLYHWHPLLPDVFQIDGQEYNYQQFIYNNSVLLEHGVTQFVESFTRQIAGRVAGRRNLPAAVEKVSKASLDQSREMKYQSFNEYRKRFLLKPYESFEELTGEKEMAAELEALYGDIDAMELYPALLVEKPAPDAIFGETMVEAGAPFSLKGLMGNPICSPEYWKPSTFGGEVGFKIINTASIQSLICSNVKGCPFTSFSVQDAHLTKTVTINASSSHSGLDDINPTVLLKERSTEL
Method: as §1

Caco-2 cells = assay: Caco-2 monolayer efflux assay, Apparent Permeability (Papp), with or without GLUT-1 inhibitor phloretin; type: in vitro ADME, Human; conditions: for reduction of the basolateral to apical flux (Papp B→A) in the presence of phloretin: phloretin vs alone; for Papp B → A, Phloretin: in the presence of 100 mM Phloretin
Method: (§2) In a monolayer efflux assay, the Apparent Permeability (Papp) in both basolateral to apical [Papp(B→A)] and apical to basolateral [Papp(A→B)] directions was determined for each compound (FIG. 2). Human colonic adenocarcinoma cell line (Caco-2) presents a facilitated transport system at the apical and basolateral surface. Caco-2 cells express high levels of GLUT-1 that are localized to the basolateral membrane and transport glucose to the serosal side.
(§3) The Papp(B→A) flux of each compound alone or in the presence of phloretin, a GLUT-1 inhibitor, has been determined. Since GLUT-1 is express in the basolateral compartment a high B→A flux means that the transport is GLUT-1 mediated because B→A flux represents the active transport.
(§4) A→B flux, which represents the passive transport, has also been determined for each compound (Table 2).

COX-2 = COX-2 (Homo sapiens, UniProt P35354); assay: colorimetric COX Inhibitor screening Assay (peroxidase component, oxidized TMPD at 590 nm); type: biochemical; conditions: for inhibition at 50 µM: the highest concentration tested; for IC50: human cyclooxygenase
COX-2, sequence (P35354 18-604 limits assumed): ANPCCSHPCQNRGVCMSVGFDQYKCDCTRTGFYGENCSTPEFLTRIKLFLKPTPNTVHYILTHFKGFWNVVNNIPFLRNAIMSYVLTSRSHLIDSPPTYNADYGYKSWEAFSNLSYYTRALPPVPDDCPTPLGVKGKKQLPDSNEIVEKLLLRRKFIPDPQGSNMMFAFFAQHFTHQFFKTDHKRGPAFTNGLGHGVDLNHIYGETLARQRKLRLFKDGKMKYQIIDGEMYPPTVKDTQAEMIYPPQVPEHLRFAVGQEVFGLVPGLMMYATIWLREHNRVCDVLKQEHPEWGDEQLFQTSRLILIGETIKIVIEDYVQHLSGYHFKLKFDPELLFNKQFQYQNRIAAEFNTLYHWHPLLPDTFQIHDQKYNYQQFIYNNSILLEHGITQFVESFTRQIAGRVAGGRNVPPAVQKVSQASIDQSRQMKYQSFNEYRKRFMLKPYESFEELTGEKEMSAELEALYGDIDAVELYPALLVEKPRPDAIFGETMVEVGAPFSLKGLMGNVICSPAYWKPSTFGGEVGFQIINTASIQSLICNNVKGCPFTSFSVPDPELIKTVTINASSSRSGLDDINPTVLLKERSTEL
Method: Human cyclooxygenase inhibitory activity was determined by a colorimetric COX Inhibitor screening Assay which measures the peroxidase component of the cyclooxygenases, monitoring the appearance of oxidized N,N,N′,N′-tetramethyl-p-phenylenediamine (TMPD) at 590 nm.

[1] = Caco-2 monolayer efflux assay, Apparent Permeability (Papp), with or without GLUT-1 inhibitor phloretin; type: in vitro ADME, Human; conditions: human, compound alone
Method: as §2, §3, §4

GLUT-1 = assay: as above; type: in vitro ADME, Human; conditions: human
Method: as §2, §3, §4

ovine COX-1, sequence (P05979 25-600): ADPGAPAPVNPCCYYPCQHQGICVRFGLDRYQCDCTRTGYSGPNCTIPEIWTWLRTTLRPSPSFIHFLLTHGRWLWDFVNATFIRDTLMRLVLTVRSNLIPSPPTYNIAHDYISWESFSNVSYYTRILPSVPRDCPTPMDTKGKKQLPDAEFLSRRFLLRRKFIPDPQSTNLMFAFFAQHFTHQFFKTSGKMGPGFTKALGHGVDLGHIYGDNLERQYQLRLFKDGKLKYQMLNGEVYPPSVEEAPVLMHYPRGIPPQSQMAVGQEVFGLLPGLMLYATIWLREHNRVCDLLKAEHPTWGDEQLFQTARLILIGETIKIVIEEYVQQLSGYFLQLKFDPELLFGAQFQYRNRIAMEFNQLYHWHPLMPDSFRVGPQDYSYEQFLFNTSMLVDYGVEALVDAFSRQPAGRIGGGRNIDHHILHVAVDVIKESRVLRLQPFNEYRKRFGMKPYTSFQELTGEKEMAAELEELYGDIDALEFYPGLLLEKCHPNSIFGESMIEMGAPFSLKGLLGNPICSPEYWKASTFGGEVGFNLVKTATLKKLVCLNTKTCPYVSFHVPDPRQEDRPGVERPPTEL

Row | Compound | IC50 (ovine COX-1) | inhibition at 50 µM (ovine COX-1) | IC50 (ovine COX-2) | inhibition at 50 µM (ovine COX-2) | further results
1 | COc1ccc(-c2noc(CC(=O)Nc3ccc(-c4ccc(NC(=O)Cc5onc(-c6ccc(OC)cc6)c5-c5ccc(OC)cc5)cc4)cc3)c2-c2ccc(OC)cc2)cc1 [Compound 16, N,N′-(Biphenyl-4,4′-di-yl)bis(2-(3,4-bis(4-methoxyphenyl)isoxazol-5-yl)acetamide)] | – | – | – | – | melting point: 240 to 243 °C
2 | CCCCC/C=C\C/C=C\C/C=C\C/C=C\CCCC(=O)Nc1ccc(NC(=O)Cc2onc(-c3ccc(OC)cc3)c2-c2ccc(OC)cc2)cc1 | 49 nM | 66% | > 50000 nM | 40% | –
3 | CCCCC/C=C\C/C=C\C/C=C\C/C=C\CCCC(=O)NCCCCNC(=O)Cc1onc(-c2ccc(OC)cc2)c1-c1ccc(OC)cc1 | 16000 nM | 57% | 800 nM | 61% | –
4 | COc1ccc(-c2noc(CC(=O)NCCCCC(=O)OC[C@H]3OC(O)[C@H](O)[C@@H](O)[C@H]3O)c2-c2ccc(OC)cc2)cc1 (stereo partly drawn) [GALMOF5, 6-O-(5-{2-[3,4-bis(4-methoxyphenyl)isoxazol-5-yl]acetamido}pentanoyl)-D-galactopyranose] | – | – | – | – | reduction of the basolateral to apical flux (Papp B→A) in the presence of phloretin (Caco-2 cells): 37%
5 | COc1ccc(-c2noc(CC(=O)OCC3OC(O)C(O)C(O)C3O)c2-c2ccc(OC)cc2)cc1 (stereo not drawn) [drawing 44] | 100 nM | 100% | 700 nM | 87% | –
6 | COc1ccc(-c2noc(CC(=O)NCCCCNC(=O)Cc3onc(-c4ccc(OC)cc4)c3-c3ccc(OC)cc3)c2-c2ccc(OC)cc2)cc1 [Compound 11, N-(4-(2-(3,4-Bis(4-methoxyphenyl)isoxazol-5-yl)acetamido)butyl)-3,4-bis(4-methoxyphenyl)isoxazole-5-carboxyamide] | – | – | – | – | melting point: 163 to 166 °C
7 | COc1ccc(-c2noc(CC(=O)NCC(=O)O)c2-c2ccc(OC)cc2)cc1 | – | 23% | – | 17% | –
8 | COc1ccc(-c2noc(CC(=O)Nc3ccc(NC(=O)Cc4onc(-c5ccc(OC)cc5)c4-c4ccc(OC)cc4)cc3)c2-c2ccc(OC)cc2)cc1 [Compound 14] | – | – | – | – | melting point: 178 to 182 °C
9 | CCC(CCCNC(=O)Cc1onc(-c2ccc(OC)cc2)c1-c1ccc(OC)cc1)NC(=O)Cc1onc(-c2ccc(OC)cc2)c1-c1ccc(OC)cc1 (stereo not drawn) [Compound 12, N-(4-(2-(3,4-Bis(4-methoxyphenyl)isoxazol-5-yl)acetamido)hexyl)-3,4-bis(4-methoxyphenyl)isoxazole-5-carboxyamide] | – | – | – | – | melting point: 159 to 161 °C
10 | COc1ccc(-c2noc(CC(=O)NCCNC(=O)Cc3onc(-c4ccc(OC)cc4)c3-c3ccc(OC)cc3)c2-c2ccc(OC)cc2)cc1 [Compound 10, N,N′-(Ethane-1,2-di-yl)-bis-(2-[3,4-bis (4-methoxyphenyl)isoxazol-5-yl]acetamide)] | – | – | – | – | melting point: 145 to 148 °C
11 | COc1ccc(-c2noc(CC(=O)NCCCCC(=O)OC[C@H]3OC(O)[C@H](O)[C@@H](O)[C@H]3O)c2-c2ccc(OC)cc2)cc1 (mixture of isomers) [GALMOF5, 6-O-(5-{2-[3,4-bis(4-methoxyphenyl)isoxazol-5-yl]acetamido}pentanoyl)-D-galactopyranose] | – | – | – | – | inhibition at 50 µM (COX-2): 24%; IC50 (COX-2): > 50000 nM; Papp A→B [1]: 32.1 ×10⁻⁶ cm/s; Papp B→A [1]: 74.9 ×10⁻⁶ cm/s; Papp A→B (GLUT-1; with phloretin 100 mM (GLUT-1 inhibitor), in the presence of 100 mM Phloretin, read-out: Papp A → B, Phloretin): 32.1 ×10⁻⁶ cm/s; Papp B→A (GLUT-1; with phloretin 100 mM (GLUT-1 inhibitor), in the presence of 100 mM Phloretin, read-out: Papp B → A, Phloretin): 47.2 ×10⁻⁶ cm/s; Papp B → A, Phloretin (Caco-2 cells): 47.2 ×10⁻⁶ cm/s
12 | CCCCCCCCC(CCCNC(=O)Cc1onc(-c2ccc(OC)cc2)c1-c1ccc(OC)cc1)NC(=O)Cc1onc(-c2ccc(OC)cc2)c1-c1ccc(OC)cc1 (stereo not drawn) [Compound 13, N-(4-(2-(3,4-Bis(4-methoxyphenyl)isoxazol-5-yl)acetamido)dodecyl)-3,4-bis(4-methoxyphenyl)isoxazole-5-carboxyamide] | – | – | – | – | melting point: 134 to 138 °C
13 | COc1ccc(-c2noc(CC(=O)O)c2-c2ccc(OC)cc2)cc1 [drawing 42, reference compound] | – | 100% | > 50000 nM | 38% | –
14 | COc1ccc(-c2noc(CC(=O)NCCCCCCCCCCC(=O)OCC3OC(O)C(O)C(O)C3O)c2-c2ccc(OC)cc2)cc1 [GALMOF11, [(2S,3R,4S,6R)-3,4,5,6-tetrahydroxytetrahydro-2H-pyran-2-yl-]mhetyl 11-{2-[3,4-bis(4-methoxyphenyl)isoxazol-5-yl-]acetamido}undecanoate] | – | – | – | – | inhibition at 50 µM (COX-2): 64%; IC50 (COX-2): 270 nM; Papp A→B (GLUT-1; compound alone, read-out: Papp A → B): 29.2 ×10⁻⁶ cm/s; Papp B→A (GLUT-1; compound alone, read-out: Papp B → A): 77.2 ×10⁻⁶ cm/s; Papp A→B (GLUT-1; with phloretin (GLUT-1 inhibitor), in Phloretin, read-out: Papp A → B, Phloretin): 29.2 ×10⁻⁶ cm/s; Papp B→A (GLUT-1; with phloretin (GLUT-1 inhibitor), in Phloretin, read-out: Papp B → A, Phloretin): 62.2 ×10⁻⁶ cm/s; Papp B→A (Caco-2 cells; compound alone): 77.2 ×10⁻⁶ cm/s; Papp B → A, Phloretin (Caco-2 cells): 62.2 ×10⁻⁶ cm/s; reduction of the basolateral to apical flux (Papp B→A) in the presence of phloretin (Caco-2 cells): 20%
15 | COC(=O)CNC(=O)Cc1onc(-c2ccc(OC)cc2)c1-c1ccc(OC)cc1 | 70 nM | 95% | 4400 nM | 80% | –

Further lines, with some results ahead:

Row | IC50 (ovine COX-1) | inhibition at 50 µM (ovine COX-1) | IC50 (ovine COX-2) | inhibition at 50 µM (ovine COX-2) | Compound | further results
16 | 5500 nM | 74% | > 50000 nM | – | COc1ccc(-c2noc(CC(=O)NCCCCNC(=O)Cc3onc(-c4ccc(OC)cc4)c3-c3ccc(OC)cc3)c2-c2ccc(OC)cc2)cc1 [drawing 64] | –
17 | > 50000 nM | – | > 50000 nM | – | COc1ccc(-c2noc(CC(=O)NCc3ccc(CNC(=O)Cc4onc(-c5ccc(OC)cc5)c4-c4ccc(OC)cc4)cc3)c2-c2ccc(OC)cc2)cc1 | –
18 | 150 nM | 85% | > 50000 nM | – | COc1ccc(-c2noc(CC(=O)Nc3ccc(NC(=O)Cc4onc(-c5ccc(OC)cc5)c4-c4ccc(OC)cc4)cc3)c2-c2ccc(OC)cc2)cc1 [drawing 65] | –
19 | 80 nM | 73% | > 50000 nM | – | COc1ccc(-c2noc(CC(=O)Nc3ccc(-c4ccc(NC(=O)Cc5onc(-c6ccc(OC)cc6)c5-c5ccc(OC)cc5)cc4)cc3)c2-c2ccc(OC)cc2)cc1 [drawing 66] | –
20 | 9000 nM | 50% | > 50000 nM | 22% | COc1ccc(-c2noc(CC(=O)NCCCCCCNC(=O)Cc3onc(-c4ccc(OC)cc4)c3-c3ccc(OC)cc3)c2-c2ccc(OC)cc2)cc1 | –
21 | 13 nM | 75% | 120 nM | 45% | COc1ccc(-c2noc(CC(=O)NCCNC(=O)Cc3onc(-c4ccc(OC)cc4)c3-c3ccc(OC)cc3)c2-c2ccc(OC)cc2)cc1 [drawing 61] | –
